{"source": "patent US9931379B2", "about": "“Oxyntomodulin analogs and methods of making and using same” (The Research Foundation for The State University of New York, priority 2015, dated 2018)", "key": {"GLP-1R": {"target": "T1, GLP-1R (Homo sapiens, UniProt P43220)", "T1 construct": "expressed in transfected cells", "T1 sequence (P43220 24-463)": "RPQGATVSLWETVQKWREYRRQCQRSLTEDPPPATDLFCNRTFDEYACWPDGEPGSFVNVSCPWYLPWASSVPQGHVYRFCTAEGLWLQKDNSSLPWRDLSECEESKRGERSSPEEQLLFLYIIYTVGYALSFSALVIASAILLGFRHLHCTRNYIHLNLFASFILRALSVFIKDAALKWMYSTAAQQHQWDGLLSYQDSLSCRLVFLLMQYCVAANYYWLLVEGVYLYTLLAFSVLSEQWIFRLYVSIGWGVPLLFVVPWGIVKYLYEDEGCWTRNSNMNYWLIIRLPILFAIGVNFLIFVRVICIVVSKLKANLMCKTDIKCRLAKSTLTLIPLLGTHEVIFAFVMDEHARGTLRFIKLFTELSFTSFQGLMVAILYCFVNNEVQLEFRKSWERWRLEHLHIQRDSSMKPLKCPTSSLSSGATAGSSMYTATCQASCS", "test": "CRE-driven luciferase reporter assay, HEK293 cells overexpressing GLP-1R", "format": "cell-based", "description": "(§1) The surviving cells (referred to as CRE-HEK293) were expanded and then transfected with a G418 selective mammalian expression plasmid encoding human GCGR or GLP-1R, followed by geneticin selection (Life technologies, Carlsbad, Calif.). Single-colony stable cell lines expressing both CRE-luciferase and GCGR/GLP-1R were then established for in vitro activity assays.\n(§2) HEK293-GCGR-CRE and HEK293-GLP-1R-CRE cells were seeded in a white 384-well plate at a density of 5,000 cells per well and cultured for 24 hours in DMEM with 10% FBS at 37° C. with 5% CO2. Cells were treated with different peptides in a dose dependent manner. After 24 hours, 10 μL of Bright-Glo reagent (Promega, Madison, Wis.) was added to each well and luminescence was determined using an Envision multilabel plate reader (PerkinElmer, Waltham, Mass.). The EC50 of each peptide was calculated using GraphPad Prism 6 software (GraphPad, San Diego, Calif.)."}, "GCGR": {"target": "T2, GCGR (Homo sapiens, UniProt P47871)", "T2 construct": "expressed in transfected cells", "T2 sequence (P47871 26-477)": "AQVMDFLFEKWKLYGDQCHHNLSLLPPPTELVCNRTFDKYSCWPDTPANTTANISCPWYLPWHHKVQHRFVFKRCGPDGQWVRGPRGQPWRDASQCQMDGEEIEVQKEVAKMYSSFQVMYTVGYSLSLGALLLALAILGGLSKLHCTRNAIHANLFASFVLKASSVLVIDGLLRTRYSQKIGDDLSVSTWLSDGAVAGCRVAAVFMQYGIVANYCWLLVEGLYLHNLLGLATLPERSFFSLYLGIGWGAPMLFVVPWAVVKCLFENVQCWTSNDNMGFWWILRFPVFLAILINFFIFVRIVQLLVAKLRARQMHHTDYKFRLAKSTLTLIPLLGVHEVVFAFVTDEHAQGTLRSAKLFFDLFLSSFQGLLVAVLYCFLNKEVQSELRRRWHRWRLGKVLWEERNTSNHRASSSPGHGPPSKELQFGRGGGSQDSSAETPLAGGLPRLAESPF", "test": "CRE-driven luciferase reporter assay, HEK293 cells overexpressing GCGR", "format": "cell-based", "conditions": "compared to its linear counterpart", "description": "as §1, §2"}, "[1]": {"test": "Far-UV circular dichroism measurement", "format": "physicochemical", "conditions": "measure of relative amounts of 310- and α-helix", "procedure": "The sensitivity and scan rate of the spectrophotometer were set to 100 mdeg and 50 nm/min, respectively. All peptides were dissolved in 0.1×PBS to reach final concentrations of 0.2 mg/mL."}, "[2]": {"test": "In vivo pharmacokinetic studies in mice; plasma peptide measured by GLP-1R reporter assay", "conditions": "mouse, 0.3 mg/kg", "procedure": "All animal care and experimental procedures were approved by the Institutional Animal Care and Use Committee (IACUC) of California Institute for Biomedical Research and strictly followed the NIH guidelines for humane treatment of animals. Female CD-1 mice obtained from Charles River Limited were used after overnight food deprivation for in vivo PK studies. Peptides were dissolved in pH adjusted phosphate buffered saline (PBS, pH=7.4). 100 μL of each peptide (0.3 mg/kg) was administered to each mouse by either i.v. or s.c routes. Food was provided to mice immediately after bleeding at 30 minutes. […] The resulting supernatant plasma was then stored at −80° C. for peptide concentration determination. Peptide concentration in the plasma was determined by in vitro GLP1R activation reporter assay.\nHEK 293 cells overexpressing GLP1R and CRE-Luc reporter were treated with plasma samples at different time points (5 point dose response, starting from 1:20 dilution of each plasma sample), incubated for 16 hours in DMEM with 10% FBS at 37° C. with 5% CO2, and the firefly luciferase activity was measured. At the same time, injected peptides were used to obtain standard curves and parameters for Bottom, Top, EC50, Hill Slope. Random luciferase unit (RLU) for each plasma sample was used to calculate the peptide concentrations in plasma (nmol/L), using parameters derived from the standard curve (RLU=Bottom+(Top−Bottom)/(1+10^((Log EC50−Conc.)*Hill Slope)). Peptide concentrations in plasma were obtained and plotted against time points to obtain in vivo half-life of each peptide, using WinNonLin Phoenix software (Pharsight Corp, St. Louis, Mo.)."}, "[3]": {"test": "In vitro half-life after incubation with freshly isolated mouse serum (GLP-1R activation assay)", "format": "in vitro ADME", "conditions": "read-out: t1/2 in vitro (converted)"}, "CD1 mice": {"test_system": "CD1 mice", "test": "Oral glucose tolerance test (OGTT)", "format": "in vivo", "conditions": "10 μg/mice s.c. 4 hours before oral glucose challenge", "procedure": "CD1 mice were fasted overnight and then administered with certain amount of peptides through s.c. injection (10 μg/mice)."}, "[4]": {"conditions": "iv, intravenously injected, read-out: elimination half-life (converted)"}, "[5]": {"conditions": "sc, administered subcutaneously, read-out: half-life (converted)"}}, "note": "Starred links: 1 amine or outer side, 2 acyl side, 3 side chain; linkers in the order of their positions; H or OH if unused. Positions of bridges follow the written chain, without caps; N, C: chain ends. Non-standard residues stand in square brackets, D forms with d. Residues, ends and D or L forms follow the SMILES beside them. CH2(3,3'-bipyridine-6,6')CH2 = c1cc(C[*:1])ncc1-c1ccc(C[*:2])nc1; Biphenyl(4,4'-CH2)2 = c1cc(-c2ccc(C[*:2])cc2)ccc1C[*:1]"}
{"compound": "CC[C@H](C)[C@H](NC(=O)[C@H](CC(N)=O)NC(=O)[C@H](CC(N)=O)NC(=O)[C@H](CCCNC(=N)N)NC(=O)[C@H](CC(N)=O)NC(=O)[C@H](CCCNC(=N)N)NC(=O)[C@H](CCCCN)NC(=O)[C@@H](NC(=O)[C@H](CC(N)=O)NC(=O)[C@H](CCSC)NC(=O)[C@H](CC(C)C)NC(=O)[C@H](Cc1c[nH]c2ccccc12)NC(=O)[C@@H]1CSCc2ccc(cc2)-c2ccc(cc2)CSC[C@H](NC(=O)[C@H](CCC(=O)O)NC(=O)[C@H](CC(=O)O)NC(=O)[C@H](CC(C)C)NC(=O)[C@H](Cc2ccc(O)cc2)NC(=O)[C@H](CCCCN)NC(=O)[C@H](CO)NC(=O)[C@H](Cc2ccc(O)cc2)NC(=O)[C@H](CC(=O)O)NC(=O)[C@H](CO)NC(=O)[C@@H](NC(=O)[C@H](Cc2ccccc2)NC(=O)[C@@H](NC(=O)CNC(=O)[C@H](CCC(N)=O)NC(=O)[C@@H](CO)NC(=O)[C@@H](N)Cc2c[nH]cn2)[C@@H](C)O)[C@@H](C)O)C(=O)N[C@@H](C)C(=O)N[C@@H](C)C(=O)N[C@@H](CCCCN)C(=O)N[C@@H](CCC(=O)O)C(=O)N[C@@H](Cc2ccccc2)C(=O)N[C@@H]([C@@H](C)CC)C(=O)N1)[C@@H](C)O)C(=O)N[C@@H](C)C(N)=O", "note": "[peptide 9] (H-H[dS]QGTFTSDYSKYLDECAAKEFICWLMNTKRNRNNIA-NH2; linker 17-24 via Biphenyl(4,4'-CH2)2)", "values": [{"measurement": "increase in activity toward GLP-1R on crosslinking", "setting": "GLP-1R; compared to its linear counterpart", "result": 80, "unit": "fold"}, {"measurement": "increase in activity toward GCGR on crosslinking", "setting": "GCGR", "result": 40, "unit": "fold"}, {"measurement": "ratio of [θ]222/[θ]208", "setting": "[1]", "result": "~1.0"}, {"measurement": "half-life", "setting": "[2]; [4]", "result": 1.2, "unit": "h"}, {"measurement": "half-life", "setting": "[2]; [5]", "result": 1.9, "unit": "h"}, {"measurement": "half-life", "setting": "[3]", "result": 13, "unit": "h"}, {"measurement": "blood glucose levels decreased to", "setting": "CD1 mice", "result": 40, "unit": "%"}]}
{"compound": "CC[C@H](C)[C@H](NC(=O)[C@H](CC(N)=O)NC(=O)[C@H](CC(N)=O)NC(=O)[C@H](CCCNC(=N)N)NC(=O)[C@H](CC(N)=O)NC(=O)[C@H](CCCNC(=N)N)NC(=O)[C@H](CCCCN)NC(=O)[C@@H](NC(=O)[C@H](CC(N)=O)NC(=O)[C@H](CCSC)NC(=O)[C@H](CC(C)C)NC(=O)[C@H](Cc1c[nH]c2ccccc12)NC(=O)[C@@H]1CSCc2ccc(cn2)-c2ccc(nc2)CSC[C@H](NC(=O)[C@H](CCC(=O)O)NC(=O)[C@H](CC(=O)O)NC(=O)[C@H](CC(C)C)NC(=O)[C@H](Cc2ccc(O)cc2)NC(=O)[C@H](CCCCN)NC(=O)[C@H](CO)NC(=O)[C@H](Cc2ccc(O)cc2)NC(=O)[C@H](CC(=O)O)NC(=O)[C@H](CO)NC(=O)[C@@H](NC(=O)[C@H](Cc2ccccc2)NC(=O)[C@@H](NC(=O)CNC(=O)[C@H](CCC(N)=O)NC(=O)[C@@H](CO)NC(=O)[C@@H](N)Cc2c[nH]cn2)[C@@H](C)O)[C@@H](C)O)C(=O)N[C@@H](C)C(=O)N[C@@H](C)C(=O)N[C@@H](CCCCN)C(=O)N[C@@H](CCC(=O)O)C(=O)N[C@@H](Cc2ccccc2)C(=O)N[C@@H]([C@@H](C)CC)C(=O)N1)[C@@H](C)O)C(=O)N[C@@H](C)C(N)=O", "note": "[peptide 11] (H-H[dS]QGTFTSDYSKYLDECAAKEFICWLMNTKRNRNNIA-NH2; linker 17-24 via CH2(3,3'-bipyridine-6,6')CH2)", "values": [{"measurement": "greater efficacy in receptor activation", "setting": "GLP-1R; compared to peptide 9, GLP-1R and GCGR", "result": "3-4 fold"}, {"measurement": "ratio of [θ]222/[θ]208", "setting": "[1]", "result": "~1.0"}, {"measurement": "half-life", "setting": "[2]; [4]", "result": 1.4, "unit": "h"}, {"measurement": "half-life", "setting": "[2]; [5]", "result": 1.9, "unit": "h"}, {"measurement": "half-life", "setting": "[3]", "result": 13, "unit": "h"}, {"measurement": "blood glucose levels decreased to", "setting": "CD1 mice", "result": 45, "unit": "%"}]}
